According to patent US7767713B2, “Linoleic acid active agents for enhancing probability of becoming pregnant” (Palo Alto Investors, priority 2004, dated 2010):

Key:
[1] = tested on: uterine lining Th1/Th2 balance; test: Animal model, immune function of the uterine lining; assay type: in vivo; details: intravaginal injection, intrauterine injection or soaked vaginal sponge; versus sterile saline control animals
Experimental: An animal model is used to determine the effects of linoleic acid on immune function of the uterine lining. Linoleic acid is delivered via several different methods—direct injection of the linoleic acid formulation into the vagina, direct injection of linoleic acid formulation into the uterus, linoleic acid soaked into a sponge and placed into the vagina. Control animals have sterile saline instilled in place of linoleic acid. The animals are then sacrificed, and the uterine lining is analyzed for changes in immunologic activity.

[2] = tested on: female patients unable to achieve a successful pregnancy; test: Open-label oral treatment of infertility clinic patients; assay type: in vivo, human; details: oral form, 100 mg-5 g/day for three months, patients unable to achieve pregnancy for at least six months
Experimental: Several patients from an active infertility clinic population are selected for open-label treatment with linoleic acid. All female patients have been unable to achieve a successful pregnancy for at least six months. Linoleic acid is formulated into a pharmaceutical oral form at a dosage of 100 mg-5 g/day for three months.

SMILES: CCCCC/C=C\C/C=C\CCCCCCCC(=O)O [linoleic acid, Linoleic acid]
- Changes in Th1/Th2 balance of uterine lining [1]: Changes in Th1/Th2 balance are seen
- Successful pregnancies [2]: Successful pregnancies are seen in at least one patient
